Literature values in patent publication US9999577B2, “Cream gels comprising at least one retinoid and benzoyl peroxide” (GALDERMA RESEARCH & DEVELOPMENT, priority 2006, dated 2018).
Like-named read-outs stand apart in the source and are kept apart here.

How the values were obtained:
[1] = not given; remark: listed apart in the source
[2] = for Decomposition time of benzoyl peroxide: 40° C.

COc1ccc(-c2ccc3cc(C(=O)O)ccc3c2)cc1C12CC3CC(CC(C3)C1)C2 [adapalene, 6-(3-(1-adamantyl)-4-methoxyphenyl)-2-naphthoic acid]
Retinoid decomposition in presence of benzoyl peroxide formulation (during 24 hours): no decomposition

O=C(OOC(=O)c1ccccc1)c1ccccc1 [benzoyl peroxide]
Solubility of benzoyl peroxide ([1]; solvent PEG 400): 39.6 mg/g | Solubility of benzoyl peroxide ([1]; solvent ethanol): 17.9 mg/g | Solubility of benzoyl peroxide ([1]; solvent glycerol): 0.15 mg/g | Solubility of benzoyl peroxide ([1]; solvent propylene glycol): 2.95 mg/g | Solubility of benzoyl peroxide ([1]; solvent propylene glycol/water (75:25)): 0.36 mg/g | Solubility of benzoyl peroxide ([1]; solvent water): 0.000155 mg/g | Decomposition of benzoyl peroxide in suspension ([2]; dispersed form in water and propylene glycol, storing for 90 days): not decomposed | Decomposition time of benzoyl peroxide ([2]; in PEG 400 (0.5 mg/g)): 1.4 days | Decomposition time of benzoyl peroxide ([2]; in ethanol): 29 days | Decomposition time of benzoyl peroxide ([2]; in propylene glycol): 53 days

CC1=C(/C=C/C(C)=C/C=C/C(C)=C/C(=O)O)C(C)(C)CCC1 [tretinoin]
Retinoid decomposing in presence of benzoyl peroxide formulation (2 hours): 50% | Retinoid decomposing in presence of benzoyl peroxide formulation (4 hours): 95%
